This is an account of results in patent US20150322033A1, “ANTIBACTERIAL AGENT” (priority 2012, published 2015).

In brackets after ≈: the same amount, converted by molar mass. Read-outs that look alike come from different tables or passages of the source.

Assay [1] concerns S. aureus Mu50 NR1-1. The assay can be described thus: MIC by broth microdilution, S. aureus Mu50 NR1-1. The format is cell-based. Conditions: Staphylococcus aureus, MU50NR11; Example 3, Table 13; read-out: MIC (mg/L) Mu50 NR1-1 (S80F, w). As to the method: MIC values of the flavones and quinolone for the strains were measured in the same manners as those of Example 1, except that S. aureus Mu50 NR-1 was also used as Staphylococcus aureus in addition to S. aureus FDA209P and S. aureus Mu50, cell suspensions of the strains were prepared.
S. aureus Mu50 NR1-1 mentioned in Table 13 is a strain selected stepwise from the clinically isolated S. aureus Mu50 strain with deoxynybomycin, and it has a topoisomerase IV encoded by parC in which a […] (see, Hiramatsu K. et al., J. Antimicrob. Agents, 2012, June; 39 (6), 478-85).
In Table 13, the descriptions in the parentheses after the strains indicate the mutated amino acid residue and its position, as represented by (the mutation of topoisomerase IV resulting from the mutation of parCand the mutation of DNA gyrase resulting from the mutation of gyrA). The character “w” means wild-type, representing without mutation.

Assay [2] concerns S. aureus Mu50. The assay can be described thus: microbe, parasite or virus in culture. The format is cell-based, Staphylococcus aureus. Conditions: for MIC ratio: (MIC value for S. aureus FDA209P)/(MIC value for S. aureus Mu50); for MIC: Staphylococcus aureus; for MIC (mg/L) Mu50: Example 1, Tables 1 to 10. In outline:
(§1)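 Overnight TSB cultures at 37 °C adjusted to A578 0.3, diluted 500-fold in CAMHB and mixed 1:1 with compound in CAMHB; static overnight incubation at 37 °C. MIC reported in mg/L; Mu50 NR-1 also tested in some runs.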

The subject of assay [3] is S. aureus FDA209P (ATCC 6538P). The assay can be described thus: microbe, parasite or virus in culture. The format is cell-based, Staphylococcus aureus. Conditions: for MIC: Staphylococcus aureus. The essentials: as §1
Where [4] appears, read: MU50, read-out: MIC (mg/L) Mu50, Example 1, Tables 1 to 10.
[5] abbreviates: MU50, read-out: MIC (mg/L) S. aureus Mu50, Example 2, Table 12.
Where [6] appears, read: Example 1, Tables 1 to 10, read-out: MIC (mg/L) FDA209P.
[7] abbreviates: Example 2, Table 12, read-out: MIC (mg/L) S. aureus FDA209P.
[8] abbreviates: Example 3, Table 13, read-out: MIC (mg/L) FDA209P (w, w).

In the case of `O.O=c1c(O)c(-c2ccc(O)c(O)c2)oc2cc(O)cc(O)c12` [No. 1, 3,3′,4′,5,7-Pentahydroxyflavone Hydrate], the MIC in assay [1] was 64 mg/L; in assay [2] (setting [4]) it was no more than 32 mg/L; in assay [2] (setting [5]), 32 mg/L; in assay [3] (setting [6]), 64 mg/L; in assay [3] (setting [7]) it was 64 mg/L; in assay [3] (setting [8]) it was 64 mg/L. Moreover, the MIC ratio in assay [2] came out at 2.
Consider `O.O=c1c(O)c(-c2ccc(O)cc2)oc2cc(O)cc(O)c12` [No. 4, 3,4′,5,7-Tetrahydroxyflavone Hydrate], for which the MIC in assay [1] came out at 16 mg/L; in assay [2] (setting [4]), 8 mg/L; in assay [2] (setting [5]) it was 8 mg/L; in assay [3] (setting [6]), 16 mg/L; in assay [3] (setting [7]) it was 16 mg/L; in assay [3] (setting [8]), 16 mg/L. Besides, the MIC ratio in assay [2] was 2.
On to `O=c1cc(-c2ccc(O)c(O)c2)oc2cc(O)cc(O)c12` [No. 6, 3′,4′,5,7-Tetrahydroxyflavone], for which the MIC in assay [1] was determined as 32 mg/L (≈ 112 µM); in assay [2] (setting [5]), 8 mg/L (≈ 27.9 µM); in assay [3] (setting [6]), 32 mg/L (≈ 112 µM); in assay [3] (setting [7]), 32 mg/L (≈ 112 µM); in assay [3] (setting [8]), 32 mg/L (≈ 112 µM). The MIC ratio in assay [2] turned out to be 4.
`COc1ccc2c(=O)cc(-c3ccccc3)oc2c1` [No. 15, 7-Methoxyflavone]: the MIC in assay [1] amounted to 128 mg/L (≈ 507 µM); in assay [2] (setting [4]), 32 mg/L (≈ 127 µM); in assay [2] (setting [5]) it was 32 mg/L (≈ 127 µM); in assay [3] (setting [6]), 128 mg/L (≈ 507 µM); in assay [3] (setting [7]), 128 mg/L (≈ 507 µM); in assay [3] (setting [8]), 128 mg/L (≈ 507 µM). Further, the MIC ratio in assay [2] was 4.
On to `COc1cc(O)c2c(=O)c(OC)c(-c3cc(O)c(OC)c(OC)c3)oc2c1` [No. 24, 5-hydroxy-2-(3-hydroxy-4,5-dimethoxyphenyl)-3,7-dimethoxychromen-4-one], for which the MIC stood at 128 mg/L (≈ 342 µM) in assay [1]; 8 mg/L (≈ 21.4 µM) in assay [2] (setting [4]); 8 mg/L (≈ 21.4 µM) in assay [2] (setting [5]); 128 mg/L (≈ 342 µM) in assay [3] (setting [6]); 128 mg/L (≈ 342 µM) in assay [3] (setting [7]); 128 mg/L (≈ 342 µM) in assay [3] (setting [8]). Moreover, the MIC ratio in assay [2] came out at 16.
As to `COc1cc(-c2oc3c(OC)c(O)cc(O)c3c(=O)c2O)ccc1O` [No. 38, 3,5,7-trihydroxy-2-(4-hydroxy-3-methoxyphenyl)-8-methoxychromen-4-one], the MIC was determined as 64 mg/L (≈ 185 µM) in assay [1]; 32 mg/L (≈ 92.4 µM) in assay [2] (setting [4]); 32 mg/L (≈ 92.4 µM) in assay [2] (setting [5]); 128 mg/L (≈ 370 µM) in assay [3] (setting [6]); 128 mg/L (≈ 370 µM) in assay [3] (setting [7]); 128 mg/L (≈ 370 µM) in assay [3] (setting [8]). Moreover, the MIC ratio in assay [2] stood at 4.
Take `COc1cc(O)c2c(=O)c(OC)c(-c3ccc(O)c(OC)c3)oc2c1` [No. 66, 5-hydroxy-2-(4-hydroxy-3-methoxyphenyl)-3,7-dimethoxychromen-4-one]: the MIC worked out at 128 mg/L (≈ 372 µM) in assay [1]; 32 mg/L (≈ 92.9 µM) in assay [2] (setting [4]); 32 mg/L (≈ 92.9 µM) in assay [2] (setting [5]); 128 mg/L (≈ 372 µM) in assay [3] (setting [6]); 128 mg/L (≈ 372 µM) in assay [3] (setting [7]); 128 mg/L (≈ 372 µM) in assay [3] (setting [8]). Further, in assay [2], the MIC ratio came to 4.
`COc1ccc2c(=O)cc(-c3ccc(O)cc3)oc2c1` [No. 69, 2-(4-hydroxyphenyl)-7-methoxychromen-4-one]: the MIC was greater than 128 mg/L in assay [1]; 16 mg/L (≈ 59.6 µM) in assay [2] (setting [4]); 8 mg/L (≈ 29.8 µM) in assay [2] (setting [5]); greater than 128 mg/L in assay [3] (setting [6]); 128 mg/L (≈ 477 µM) in assay [3] (setting [7]); greater than 128 mg/L in assay [3] (setting [8]). Also, the MIC ratio in assay [2] amounted to 16.
Regarding `CCn1cc(C(=O)O)c(=O)c2cc(F)c(N3CCNCC3)cc21` [Norfloxacin, norfloxacin, reference compound], the MIC in assay [1] amounted to 16 mg/L (≈ 50.1 µM); in assay [2] (setting [5]) it was 64 mg/L (≈ 200 µM); in assay [3] (setting [7]) it was 0.5 mg/L (≈ 1.57 µM); in assay [3] (setting [8]), 0.5 mg/L (≈ 1.57 µM). The MIC ratio in assay [2] was determined as 0.008.
Take `O=C1CC(c2ccccc2)Oc2ccccc21` (stereo not shown) [compound 126]: the MIC in assay [2] (setting [4]) and in assay [3] (setting [6]) was 128 mg/L (≈ 571 µM) in each case.
As for `O=C1CC(c2ccc(O)cc2)Oc2cc(O)cc(O)c21` (stereo not shown) [compound 128, 4′,5,7-Trihydroxyflavanone], the MIC in assay [2] (setting [4]) and in assay [3] (setting [6]) was 128 mg/L (≈ 470 µM) throughout.
In the case of `COc1cc(-c2[o+]c3cc(O)cc(O)c3cc2O)cc(OC)c1O` [compound 130], in assay [2], the “MIC (mg/L) Mu50” value is on record as 128 mg/L. Besides, the “MIC (mg/L) FDA209P” value in assay [3] (Example 1, Tables 1 to 10) is 128 mg/L.
As for `COc1cc(-c2[o+]c3cc(O)cc(O)c3cc2O)cc(O)c1O` [compound 131], the “MIC (mg/L) Mu50” value in assay [2] came to 128 mg/L. In addition, in assay [3] (Example 1, Tables 1 to 10), the “MIC (mg/L) FDA209P” value came out at 128 mg/L.
Consider `O.Oc1cc(O)c2c(c1)OC(c1ccc(O)c(O)c1)C(O)C2` (stereo not shown) [compound 133, 3,3′,4′,5,7-Flavanpentol Hydrate], for which, in assay [2] (Hydrate), the “MIC (mg/L) Mu50” value is reported as greater than 128 mg/L. Moreover, the “MIC (mg/L) FDA209P” value in assay [3] (Example 1, Tables 1 to 10) is reported as 128 mg/L.
